Test results published in patent US20230263822A1, “MODULATION OF FACTOR 11 EXPRESSION” (Ionis Pharmaceuticals, Inc., priority 2008, published 2023).

Assay: Hematology assays in cynomolgus monkeys (Example 45)
Assay type: in vivo
Conditions: for MCH / MCHC / MCV / RBC count / WBC count / hematocrit / hemoglobin: escalating dose regimen
Method: Groups, each consisting of two male and three female monkeys, were injected subcutaneously with ISIS 416838, ISIS 416850, ISIS 416858, ISIS 416864, or ISIS 417002 in escalating doses. Antisense oligonucleotide was administered to the monkeys at 5 mg/kg three times per a week for week 1; 5 mg/kg twice per week for weeks 2 and 3; 10 mg/kg three times per week for week 4; 10 mg/kg twice per week for weeks 5 and 6; 25 mg/kg three times per week for week 7; and 25 mg/kg twice per week for weeks 8, 9, 10, 11, and 12. One control group, consisting of two male and three female monkeys, was injected subcutaneously with PBS according to the same dosing regimen. An additional experimental group, consisting of two male and three female monkeys, was injected subcutaneously with ISIS 416850 in a chronic, lower dose regimen. Antisense oligonucleotide was administered to the monkeys at 5 mg/kg three times per week for week 1; 5 mg/kg twice per week for week 2 and 3; 10 mg/kg three times per week for week 4; and 10 mg/kg twice per week for weeks 5 to 12. Body weights were measured weekly. Blood samples were collected 14 days and 5 days before the start of treatment and subsequently once per week for Factor 11 protein activity analysis in plasma, fibrinogen measurement, PT and aPTT measurements, bleeding times, and measurement of various hematologic factors. On day 85, the monkeys were euthanized by exsanguination while under deep anesthesia, and organs harvested for further analysis.
The ISIS oligonucleotide, ISIS 416850, given with the chronic dose regimen is distinguished from the other oligonucleotides with an asterisk (*).

For “ISIS 417002: MOE gapmer, nucleobases 1275 to 1318 of SEQ ID NO: 1 (Table 8) (antisense GGTGCACAGTTTCTGGCAGG; MOE gapmer, wing and gap sizes not given here)”, the MCH (Day 64) was 22 pg, the MCH (Day 71) was 23 pg and the MCH (Day 78) was 23 pg. For the same substance, the MCH (Day 85) was 23 pg, the basophils (day 8) was 0.3% and the eosinophils (day 8) was 0.2%. The lymphocytes (day 8) was 50%, the monocytes (day 8) was 3.3% and the neutrophils (day 8) was 46%. It also gave a platelet count (day 8) of 435000 µL⁻¹, a reticulocytes (day 8) of 1.1% and an MCH (day 8) of 23 pg. The MCHC (day 8) was 29 g/dL, the MCV (day 8) was 79 fL and the RBC count (day 8) was 5.6e+06 µL⁻¹. The WBC count (day 8) was 10000 µL⁻¹, the hematocrit (day 8) was 44% and the hemoglobin (day 8) was 12.8 g/dL. For the same substance, the basophils (day 15) was 0.2%, the eosinophils (day 15) was 0.1% and the lymphocytes (day 15) was 40%. It also gave a monocytes (day 15) of 2.3%, a neutrophils (day 15) of 57% and a platelet count (day 15) of 410000 µL⁻¹. For the same substance, the reticulocytes (day 15) was 1.1%, the MCH (day 15) was 23 pg and the MCHC (day 15) was 31 g/dL. The MCV (day 15) was 76 fL, the RBC count (day 15) was 5.4e+06 µL⁻¹ and the WBC count (day 15) was 10000 µL⁻¹. The hematocrit (day 15) was 40%, the hemoglobin (day 15) was 12.3 g/dL and the basophils (day 22) was 0.2%. For the same substance, the eosinophils (day 22) was 0.3%, the lymphocytes (day 22) was 41% and the monocytes (day 22) was 3.1%. For the same substance, the neutrophils (day 22) was 55%, the platelet count (day 22) was 377000 µL⁻¹ and the reticulocytes (day 22) was 1.2%. For the same substance, the MCH (day 22) was 23 pg, the MCHC (day 22) was 29 g/dL and the MCV (day 22) was 79 fL. For the same substance, the RBC count (day 22) was 5.2e+06 µL⁻¹, the WBC count (day 22) was 10000 µL⁻¹ and the hematocrit (day 22) was 41%. The hemoglobin (day 22) was 12.1 g/dL, the basophils (day 29) was 0.2% and the eosinophils (day 29) was 0.3%. For the same substance, the lymphocytes (day 29) was 50%, the monocytes (day 29) was 3.5% and the neutrophils (day 29) was 45%. It also gave a platelet count (day 29) of 410000 µL⁻¹, a reticulocytes (day 29) of 1.6% and an MCH (day 29) of 23 pg. The MCHC (day 29) was 29 g/dL, the MCV (day 29) was 81 fL and the RBC count (day 29) was 5.2e+06 µL⁻¹. For the same substance, the WBC count (day 29) was 10000 µL⁻¹, the hematocrit (day 29) was 42% and the hemoglobin (day 29) was 12.0 g/dL. For the same substance, the basophils (day 36) was 0.2%, the eosinophils (day 36) was 0.2% and the lymphocytes (day 36) was 35%. The monocytes (day 36) was 2.6%, the neutrophils (day 36) was 61% and the platelet count (day 36) was 415000 µL⁻¹. The reticulocytes (day 36) was 1.3%, the MCH (day 36) was 23 pg and the MCHC (day 36) was 30 g/dL. It also gave an MCV (day 36) of 78 fL, an RBC count (day 36) of 5.4e+06 µL⁻¹ and a WBC count (day 36) of 11000 µL⁻¹. The hematocrit (day 36) was 42%, the hemoglobin (day 36) was 12.5 g/dL and the basophils (day 43) was 0.3%. The eosinophils (day 43) was 0.2%, the lymphocytes (day 43) was 39% and the monocytes (day 43) was 2.8%. For the same substance, the neutrophils (day 43) was 57%, the platelet count (day 43) was 393000 µL⁻¹ and the reticulocytes (day 43) was 1.1%. For the same substance, the MCH (day 43) was 23 pg, the MCHC (day 43) was 30 g/dL and the MCV (day 43) was 77 fL. It also gave an RBC count (day 43) of 5.4e+06 µL⁻¹, a WBC count (day 43) of 10000 µL⁻¹ and a hematocrit (day 43) of 41%. It also gave a hemoglobin (day 43) of 12.3 g/dL, a basophils (day 50) of 0.3% and an eosinophils (day 50) of 0.1%. It also gave a lymphocytes (day 50) of 34%, a monocytes (day 50) of 3.1% and a neutrophils (day 50) of 61%. The platelet count (day 50) was 389000 µL⁻¹, the reticulocytes (day 50) was 1.6% and the MCH (day 50) was 23 pg. The MCHC (day 50) was 29 g/dL, the MCV (day 50) was 80 fL and the RBC count (day 50) was 5.4e+06 µL⁻¹. For the same substance, the WBC count (day 50) was 13000 µL⁻¹, the hematocrit (day 50) was 43% and the hemoglobin (day 50) was 12.3 g/dL. For the same substance, the basophils (day 57) was 0.3%, the eosinophils (day 57) was 0.2% and the lymphocytes (day 57) was 40%. The monocytes (day 57) was 3.6%, the neutrophils (day 57) was 54% and the platelet count (day 57) was 403000 µL⁻¹. The reticulocytes (day 57) was 4.6%, the MCH (day 57) was 23 pg and the MCHC (day 57) was 29 g/dL. The MCV (day 57) was 80 fL, the RBC count (day 57) was 4.9e+06 µL⁻¹ and the WBC count (day 57) was 12000 µL⁻¹. It also gave a hematocrit (day 57) of 38%, a hemoglobin (day 57) of 11.3 g/dL and a basophils (day 64) of 0.2%. The eosinophils (day 64) was 0.2%, the lymphocytes (day 64) was 39% and the monocytes (day 64) was 4.0%. The neutrophils (day 64) was 55%, the platelet count (day 64) was 436000 µL⁻¹ and the reticulocytes (day 64) was 1.3%. It also gave an MCHC (day 64) of 30 g/dL, an MCV (day 64) of 76 fL and an RBC count (day 64) of 5.4e+06 µL⁻¹. For the same substance, the WBC count (day 64) was 11000 µL⁻¹, the hematocrit (day 64) was 41% and the hemoglobin (day 64) was 12.2 g/dL. It also gave a basophils (day 71) of 0.3%, an eosinophils (day 71) of 0.3% and a lymphocytes (day 71) of 59%. The monocytes (day 71) was 4.7%, the neutrophils (day 71) was 34% and the platelet count (day 71) was 490000 µL⁻¹. It also gave a reticulocytes (day 71) of 1.3%, an MCHC (day 71) of 29 g/dL and an MCV (day 71) of 78 fL. The RBC count (day 71) was 5.5e+06 µL⁻¹, the WBC count (day 71) was 12000 µL⁻¹ and the hematocrit (day 71) was 43%. For the same substance, the hemoglobin (day 71) was 12.5 g/dL, the basophils (day 78) was 0.3% and the eosinophils (day 78) was 0.1%. It also gave a lymphocytes (day 78) of 41%, a monocytes (day 78) of 4.7% and a neutrophils (day 78) of 51%. For the same substance, the platelet count (day 78) was 432000 µL⁻¹, the reticulocytes (day 78) was 1.3% and the MCHC (day 78) was 31 g/dL. It also gave an MCV (day 78) of 75 fL, an RBC count (day 78) of 5.4e+06 µL⁻¹ and a WBC count (day 78) of 9000 µL⁻¹. For the same substance, the hematocrit (day 78) was 40%, the hemoglobin (day 78) was 12.4 g/dL and the basophils (day 85) was 0.3%. For the same substance, the eosinophils (day 85) was 0.2%, the lymphocytes (day 85) was 56% and the monocytes (day 85) was 5.3%. The neutrophils (day 85) was 36%, the platelet count (day 85) was 418000 µL⁻¹ and the reticulocytes (day 85) was 1.4%. The MCHC (day 85) was 30 g/dL, the MCV (day 85) was 76 fL and the RBC count (day 85) was 5.4e+06 µL⁻¹. The WBC count (day 85) was 10000 µL⁻¹, the hematocrit (day 85) was 41% and the hemoglobin (day 85) was 12.2 g/dL. The basophils (day −5) was 0.3%, the eosinophils (day −5) was 0.3% and the lymphocytes (day −5) was 53%. The monocytes (day −5) was 3.2%, the neutrophils (day −5) was 43% and the platelet count (day −5) was 466000 µL⁻¹. For the same substance, the reticulocytes (day −5) was 0.8%, the MCH (day −5) was 24 pg and the MCHC (day −5) was 30 g/dL. The MCV (day −5) was 80 fL, the RBC count (day −5) was 5.6e+06 µL⁻¹ and the WBC count (day −5) was 14000 µL⁻¹. The hematocrit (day −5) was 45%, the hemoglobin (day −5) was 13.2 g/dL and the basophils (day −14) was 0.3%. The eosinophils (day −14) was 0.3%, the lymphocytes (day −14) was 53% and the monocytes (day −14) was 3.0%. It also gave a neutrophils (day −14) of 43%, a platelet count (day −14) of 442000 µL⁻¹ and a reticulocytes (day −14) of 0.9%. It also gave an MCH (day −14) of 24 pg, an MCHC (day −14) of 30 g/dL and an MCV (day −14) of 79 fL. The RBC count (day −14) was 5.6e+06 µL⁻¹, the WBC count (day −14) was 13000 µL⁻¹ and the hematocrit (day −14) was 44%. For the same substance, the hemoglobin (day −14) was 13.0 g/dL.
